# Literature values in patent US20020013357A1, “Valdecoxib compositions” (priority 1999, published 2002).
structure (smiles),measurement,value
"Cc1onc(-c2ccccc2)c1-c1ccc(S(N)(=O)=O)cc1 [Valdecoxib, 4-(5-methyl-3-phenyl-4-isoxazolyl)benzenesulfonamide]",solubility in water,extremely low solubility in water
